From patent US20260284079A1, “LIPID PRODRUGS OF ALLOPR[…] USES THEREOF” (Seaport Therapeutics, Inc., priority 2023, published 2026)

How the values were obtained:
[1] = Stanford Sleepiness Scale (SSS) and MOAA/S; type: in vivo, human
Excerpt: Part 1 Exploratory Objectives: To characterize the pharmacodynamic (PD) effects, and the PK/PD relationship, of Compound 1 on select clinical outcome assessments (COAs) of central nervous system effects following ascending single oral doses of Compound 1 (e.g., Stanford Sleepiness Scale (SSS), Modified Observer's Assessment of Alertness/Sedation Scale (MOAA/S), Sleep Quality Scale (SQS)). Part 1 Exploratory Endpoints: Changes from Baseline in SSS, MOAA/S, and/or SQS.
Part 3 Exploratory Objective: to characterize the PD effects, and the PK/PD relationships of Compound 1 on select effects following multiple oral doses of Compound 1. Part 3 Exploratory Endpoints: changes from baseline in qEEG, SSS, MOAA/S, the SQS, Cogstate, Body Sway, and video-oculography (VOG) assessment.
Participants were assessed using metrics as outlined below. The SSS is a one item self-report questionnaire that measures and quantifies progressive steps in the level of sleepiness throughout the day. Subjects select one of seven statements that best represents their level of perceived sleepiness at a given timepoint, as depicted in Table 7.
The MOAA/S is a clinical outcome assessment that measures a subject's level of alertness/sedation as determined by a rater; in its modified form, it uses only the responsiveness component of the original Observer's Assessment of Alertness/Sedation Scale. Responsiveness, as a measure of sedation, was assessed and scored on a scale of 0 to 5 as outlined in Table 8.

[2] = TSST study safety and tolerability (Example 2); type: in vivo, human
Experimental: A double-blind, placebo-controlled study was performed in 80 healthy participants to determine the effects of a single dose of Compound 1 in a validated and standardized behavioral challenge, the Trier Social Stress Test (TSST). The TSST is a reliable behavioral model used to examine the neurobiological response to acute stress in humans, whereby an acute stress (and associated acute stress response) is induced under experimentally controlled conditions. The TSST induces stress through public speaking. It incorporates social evaluation and unpredictability, by obliging the person to speak in front of an unresponsive audience and is further followed by a surprise mental arithmetic test. The TSST combines elements of a social-evaluative threat and uncontrollability to produce a consistent and robust physiological and psychological stress response in humans. On the day of the study, the participant was tasked with a speech prompt, for which they had 3 minutes to prepare. The participant was then required to present the speech for 5 minutes to a panel while under the pretense of being recorded. Following the speech, participants were given an unexpected mental arithmetic task. The TSST is more fully described in Allen A et al., Neurobiol. Stress (2017), February; 6:113-126.
The study included a validation cohort and a randomized cohort. The validation cohort (n=10) was given placebo for the purposes of validating the TSST and study endpoints. The randomized cohort […] were randomized and stratified by sex to placebo or 375 mg of Compound 1 in a 1:1 ratio. The cohorts are described in Table 14. An overview of the TSST study design is also depicted in FIG. 4C.
The objective of the study was to evaluate the efficacy of Compound 1 vs. placebo in blunting the response to endpoints measured during and after the TSST procedure. The primary efficacy endpoint was the change from baseline (before TSST procedure) to the peak (maximum change) in salivary cortisol levels as measured before, during, and after the TSST procedure. The primary outcome for determining this was salivary cortisol levels. The key secondary outcomes were be the Numerical Rating Scale (NRS) for stress, anxiety, fear, embarrassment, and excitement. Additional secondary outcomes were the State Trait Anxiety Index (STAI), and blood pressure. Safety and tolerability (i.e., incidence, severity, and duration of treatment-emergent adverse events (TEAEs), serious adverse events (SAEs), and incidence of other clinically relevant signs) were also monitored. Prior to the TSST, a post-dose sample was collected for pharmacokinetic analysis.

CCCCCCCC(=O)OCC(COC(=O)CCCCCCC)OC(=O)CC(C)CC(=O)OCOC(=O)O[C@@H]1CC[C@@]2(C)[C@@H](CC[C@@H]3[C@@H]2CC[C@]2(C)[C@@H](C(C)=O)CC[C@@H]32)C1 (stereo partly shown) [Compound 1]
change from baseline in SSS and MOAA/S ([1]; Cohort 6 (Part 3), 500 mg, compared to lower doses): greater magnitude of effect from baseline | change from baseline in SSS and MOAA/S score ([1]; Cohorts 1, 2, 2b (Part 1), single doses): dose-dependent increase from baseline in the Stanford Sleepiness Scale (SSS) and a decrease from baseline in the MOAA/S score | change from baseline in SSS and MOAA/S ([1]; Cohorts 4, 5, 7, 8 (Part 3), 250 mg and 375 mg, early days of dosing): low magnitude of change from baseline | time of maximum changes in SSS and MOAA/S ([1]; Part 1): 3-5 hours post-dose | time of return to baseline levels of SSS and MOAA/S ([1]; Part 1, all treatment groups): ≤ 12 hours post-dose | difference in mean change from baseline between fed (HF or LF) and fasted states ([1]; cohort 3, 140 mg): no apparent difference | tolerability in the TSST study ([2]; single 375 mg dose): well tolerated | TEAE dizziness ([2]; single 375 mg, placebo 3%): 20% | TEAE headache ([2]; single 375 mg, placebo 7.7%): 7.3% | TEAE somnolence ([2]; single 375 mg, placebo 13%): 29%
